Assay results: ChEMBL document CHEMBL1268814, “Synthesis and biological evaluation of bivalent ligands for the cannabinoid 1 receptor” (J Med Chem, 2010)
The source made the active and inactive calls. The calls are words filed in the database; no cut-off is given here.

Biological target: Cannabinoid receptor 1 (Rattus norvegicus) (UniProt P20272)
Test: Antagonist activity at rat brain CB1 receptor assessed as inhibition of [35S]GTPgammaS binding at 10000 nM
Type: functional
Conditions: not given

Sequence of Cannabinoid receptor 1 (Rattus norvegicus) (P20272 whole entry): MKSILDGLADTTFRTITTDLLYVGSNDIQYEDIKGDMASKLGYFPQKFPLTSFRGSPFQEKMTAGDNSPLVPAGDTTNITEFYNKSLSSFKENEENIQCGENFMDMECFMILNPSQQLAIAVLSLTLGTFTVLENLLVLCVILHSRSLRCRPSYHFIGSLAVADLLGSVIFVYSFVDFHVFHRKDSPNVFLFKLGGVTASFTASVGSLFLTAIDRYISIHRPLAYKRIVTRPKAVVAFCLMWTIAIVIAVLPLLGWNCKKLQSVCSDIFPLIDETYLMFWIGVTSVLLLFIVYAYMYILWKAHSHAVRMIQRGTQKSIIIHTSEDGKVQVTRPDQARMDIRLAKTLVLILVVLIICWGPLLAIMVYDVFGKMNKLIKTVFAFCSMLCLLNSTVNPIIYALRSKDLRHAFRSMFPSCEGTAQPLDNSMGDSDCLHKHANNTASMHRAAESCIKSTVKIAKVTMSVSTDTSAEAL

SMILES | Emax [%]
Cc1c(C(=O)NCCCCCCCCCNCCCCCCCCCN)nn(-c2ccc(Cl)cc2Cl)c1-c1ccc(Cl)cc1 | -65.2
Cc1c(C(=O)NCCCCCCCN(C)CCCCCCCN)nn(-c2ccc(Cl)cc2Cl)c1-c1ccc(Cl)cc1 | -62
Cc1c(C(=O)NCCCCCCCCCCCN(C)CCCCCCCCCCCNC(=O)c2nn(-c3ccc(Cl)cc3Cl)c(-c3ccc(Cl)cc3)c2C)nn(-c2ccc(Cl)cc2Cl)c1-c1ccc(Cl)cc1 | 17.3
Cc1c(C(=O)NCCCCCCCN(C)CCCCCCCNC(=O)c2nn(-c3ccc(Cl)cc3Cl)c(-c3ccc(Cl)cc3)c2C)nn(-c2ccc(Cl)cc2Cl)c1-c1ccc(Cl)cc1 | -40.8
Cc1c(C(=O)NCCCNCCCN)nn(-c2ccc(Cl)cc2Cl)c1-c1ccc(Cl)cc1 | -34.8
Cc1c(C(=O)NCCCCCCCNCCCCCCCN)nn(-c2ccc(Cl)cc2Cl)c1-c1ccc(Cl)cc1 | -52.8
Cc1c(C(=O)NCCNCCN)nn(-c2ccc(Cl)cc2Cl)c1-c1ccc(Cl)cc1 | -22.9
Cc1c(C(=O)NCCCCCNCCCCCNC(=O)c2nn(-c3ccc(Cl)cc3Cl)c(-c3ccc(Cl)cc3)c2C)nn(-c2ccc(Cl)cc2Cl)c1-c1ccc(Cl)cc1 | -29.6
Cc1c(C(=O)NCCCCCNCCCCCN)nn(-c2ccc(Cl)cc2Cl)c1-c1ccc(Cl)cc1 | -40.7

Biological target: T1, Cannabinoid receptor 1 (Homo sapiens, UniProt P21554)
T1 sequence (P21554 whole entry): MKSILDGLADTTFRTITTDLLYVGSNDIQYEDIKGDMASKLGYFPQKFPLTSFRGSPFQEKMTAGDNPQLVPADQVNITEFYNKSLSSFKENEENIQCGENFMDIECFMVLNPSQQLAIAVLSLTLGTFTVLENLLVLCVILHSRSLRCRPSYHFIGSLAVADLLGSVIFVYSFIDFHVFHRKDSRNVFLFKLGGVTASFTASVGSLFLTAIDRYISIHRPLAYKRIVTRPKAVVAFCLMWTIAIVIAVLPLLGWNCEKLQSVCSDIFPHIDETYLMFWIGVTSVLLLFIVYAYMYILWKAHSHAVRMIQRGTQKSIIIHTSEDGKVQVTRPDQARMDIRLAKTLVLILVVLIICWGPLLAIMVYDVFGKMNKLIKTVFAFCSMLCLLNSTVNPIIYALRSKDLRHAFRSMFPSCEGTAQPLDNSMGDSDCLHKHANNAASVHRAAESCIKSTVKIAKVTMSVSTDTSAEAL
Test: Antagonist activity at human brain CB1 receptor assessed as inhibition for [35S]GTPgammaS binding
Type: functional
Conditions: not given

SMILES | EC50 [nM]
Cc1c(C(=O)NCCCCCCCCCCCN(C)CCCCCCCCCCCNC(=O)c2nn(-c3ccc(Cl)cc3Cl)c(-c3ccc(Cl)cc3)c2C)nn(-c2ccc(Cl)cc2Cl)c1-c1ccc(Cl)cc1 | > 25000
Cc1c(C(=O)NCCCCCCCN(C)CCCCCCCNC(=O)c2nn(-c3ccc(Cl)cc3Cl)c(-c3ccc(Cl)cc3)c2C)nn(-c2ccc(Cl)cc2Cl)c1-c1ccc(Cl)cc1 | 2240
Cc1c(C(=O)NCCCCCCCCCN(C)CCCCCCCCCNC(=O)c2nn(-c3ccc(Cl)cc3Cl)c(-c3ccc(Cl)cc3)c2C)nn(-c2ccc(Cl)cc2Cl)c1-c1ccc(Cl)cc1 | 161
Cc1c(C(=O)NCCCCCNCCCCCNC(=O)c2nn(-c3ccc(Cl)cc3Cl)c(-c3ccc(Cl)cc3)c2C)nn(-c2ccc(Cl)cc2Cl)c1-c1ccc(Cl)cc1 | 33

Biological target: Cannabinoid receptor 1 (Rattus norvegicus, UniProt P20272)
Sequence (P20272 whole entry): as the sequence (P20272 whole entry) above
Test: Antagonist activity at rat brain CB1 receptor assessed as inhibition of [35S]GTPgammaS binding
Type: functional
Conditions: not given

SMILES | EC50 [nM]
Cc1c(C(=O)NCCCCCCCCCNCCCCCCCCCN)nn(-c2ccc(Cl)cc2Cl)c1-c1ccc(Cl)cc1 | 2390
Cc1c(C(=O)NCCCCCCCN(C)CCCCCCCN)nn(-c2ccc(Cl)cc2Cl)c1-c1ccc(Cl)cc1 | 4370
Cc1c(C(=O)NCCCCCCCCCCCN(C)CCCCCCCCCCCNC(=O)c2nn(-c3ccc(Cl)cc3Cl)c(-c3ccc(Cl)cc3)c2C)nn(-c2ccc(Cl)cc2Cl)c1-c1ccc(Cl)cc1 | 29.3
Cc1c(C(=O)NCCCCCCCN(C)CCCCCCCNC(=O)c2nn(-c3ccc(Cl)cc3Cl)c(-c3ccc(Cl)cc3)c2C)nn(-c2ccc(Cl)cc2Cl)c1-c1ccc(Cl)cc1 | 1460
Cc1c(C(=O)NCCCNCCCN)nn(-c2ccc(Cl)cc2Cl)c1-c1ccc(Cl)cc1 | > 10000
Cc1c(C(=O)NCCCCCCCNCCCCCCCN)nn(-c2ccc(Cl)cc2Cl)c1-c1ccc(Cl)cc1 | 3280
Cc1c(C(=O)NCCNCCN)nn(-c2ccc(Cl)cc2Cl)c1-c1ccc(Cl)cc1 | 7240
Cc1c(C(=O)NCCCCCCCCCN(C)CCCCCCCCCNC(=O)c2nn(-c3ccc(Cl)cc3Cl)c(-c3ccc(Cl)cc3)c2C)nn(-c2ccc(Cl)cc2Cl)c1-c1ccc(Cl)cc1 | > 10000
Cc1c(C(=O)NCCCCCNCCCCCNC(=O)c2nn(-c3ccc(Cl)cc3Cl)c(-c3ccc(Cl)cc3)c2C)nn(-c2ccc(Cl)cc2Cl)c1-c1ccc(Cl)cc1 | > 10000
Cc1c(C(=O)NCCCCCNCCCCCN)nn(-c2ccc(Cl)cc2Cl)c1-c1ccc(Cl)cc1 | 2220

Biological target: T1, Cannabinoid receptor 1
Test: Antagonist activity at human brain CB1 receptor assessed as inhibition for [35S]GTPgammaS binding at 10000 nM
Type: functional
Conditions: not given

SMILES | Emax [%]
Cc1c(C(=O)NCCCCCCCN(C)CCCCCCCNC(=O)c2nn(-c3ccc(Cl)cc3Cl)c(-c3ccc(Cl)cc3)c2C)nn(-c2ccc(Cl)cc2Cl)c1-c1ccc(Cl)cc1 | -32.7
Cc1c(C(=O)NCCCCCCCCCN(C)CCCCCCCCCNC(=O)c2nn(-c3ccc(Cl)cc3Cl)c(-c3ccc(Cl)cc3)c2C)nn(-c2ccc(Cl)cc2Cl)c1-c1ccc(Cl)cc1 | -23
Cc1c(C(=O)NCCCCCNCCCCCNC(=O)c2nn(-c3ccc(Cl)cc3Cl)c(-c3ccc(Cl)cc3)c2C)nn(-c2ccc(Cl)cc2Cl)c1-c1ccc(Cl)cc1 | 8.5

Test system: Mus musculus
Test: Inhibition of compound 21-induced antinociception in mouse at 10 mg/kg, ip administered 30 mins before compound-21 dosing by tail flick latency test
Conditions: not given

SMILES | inhibition
Cc1c(C(=O)NCCCCCCCN(C)CCCCCCCN)nn(-c2ccc(Cl)cc2Cl)c1-c1ccc(Cl)cc1 | Active
Cc1c(C(=O)NCCCCCCCN(C)CCCCCCCNC(=O)c2nn(-c3ccc(Cl)cc3Cl)c(-c3ccc(Cl)cc3)c2C)nn(-c2ccc(Cl)cc2Cl)c1-c1ccc(Cl)cc1 | Active
Cc1c(C(=O)NCCCCCCCNCCCCCCCN)nn(-c2ccc(Cl)cc2Cl)c1-c1ccc(Cl)cc1 | inactive

Biological target: T1, Cannabinoid receptor 1
Test: not given
Conditions: CHO

SMILES | Ke
Cc1c(C(=O)NCCCCCCCCCNCCCCCCCCCN)nn(-c2ccc(Cl)cc2Cl)c1-c1ccc(Cl)cc1 | 31.6 nM
Cc1c(C(=O)NCCCCCCCN(C)CCCCCCCN)nn(-c2ccc(Cl)cc2Cl)c1-c1ccc(Cl)cc1 | 220 nM
Cc1c(C(=O)NCCCCCCCCCCCN(C)CCCCCCCCCCCNC(=O)c2nn(-c3ccc(Cl)cc3Cl)c(-c3ccc(Cl)cc3)c2C)nn(-c2ccc(Cl)cc2Cl)c1-c1ccc(Cl)cc1 | inactive
Cc1c(C(=O)NCCCCCCCN(C)CCCCCCCNC(=O)c2nn(-c3ccc(Cl)cc3Cl)c(-c3ccc(Cl)cc3)c2C)nn(-c2ccc(Cl)cc2Cl)c1-c1ccc(Cl)cc1 | 478 nM
Cc1c(C(=O)NCCCNCCCN)nn(-c2ccc(Cl)cc2Cl)c1-c1ccc(Cl)cc1 | inactive
Cc1c(C(=O)NCCCCCCCNCCCCCCCN)nn(-c2ccc(Cl)cc2Cl)c1-c1ccc(Cl)cc1 | 503 nM
Cc1c(C(=O)NCCNCCN)nn(-c2ccc(Cl)cc2Cl)c1-c1ccc(Cl)cc1 | inactive
Cc1c(C(=O)NCCCCCCCCCN(C)CCCCCCCCCNC(=O)c2nn(-c3ccc(Cl)cc3Cl)c(-c3ccc(Cl)cc3)c2C)nn(-c2ccc(Cl)cc2Cl)c1-c1ccc(Cl)cc1 | inactive
Cc1c(C(=O)NCCCCCNCCCCCNC(=O)c2nn(-c3ccc(Cl)cc3Cl)c(-c3ccc(Cl)cc3)c2C)nn(-c2ccc(Cl)cc2Cl)c1-c1ccc(Cl)cc1 | 476 nM
Cc1c(C(=O)NCCCCCNCCCCCN)nn(-c2ccc(Cl)cc2Cl)c1-c1ccc(Cl)cc1 | 5400 nM

Biological target: T1, Cannabinoid receptor 1
Test: Antagonist activity at human brain CB1 receptor by calcium mobilization assay
Type: functional
Conditions: read-out: pA2 (converted)

SMILES | Kb [nM]
Cc1c(C(=O)NCCCCCCCCCNCCCCCCCCCN)nn(-c2ccc(Cl)cc2Cl)c1-c1ccc(Cl)cc1 | 5.62
Cc1c(C(=O)NCCCCCCCN(C)CCCCCCCN)nn(-c2ccc(Cl)cc2Cl)c1-c1ccc(Cl)cc1 | 21.9
Cc1c(C(=O)NCCCCCCCCCCCN(C)CCCCCCCCCCCNC(=O)c2nn(-c3ccc(Cl)cc3Cl)c(-c3ccc(Cl)cc3)c2C)nn(-c2ccc(Cl)cc2Cl)c1-c1ccc(Cl)cc1 | 501
Cc1c(C(=O)NCCCCCCCN(C)CCCCCCCNC(=O)c2nn(-c3ccc(Cl)cc3Cl)c(-c3ccc(Cl)cc3)c2C)nn(-c2ccc(Cl)cc2Cl)c1-c1ccc(Cl)cc1 | 4.27
Cc1c(C(=O)NCCCCCCCNCCCCCCCN)nn(-c2ccc(Cl)cc2Cl)c1-c1ccc(Cl)cc1 | 20.4
Cc1c(C(=O)NCCCCCCCCCN(C)CCCCCCCCCNC(=O)c2nn(-c3ccc(Cl)cc3Cl)c(-c3ccc(Cl)cc3)c2C)nn(-c2ccc(Cl)cc2Cl)c1-c1ccc(Cl)cc1 | 29.5
Cc1c(C(=O)NCCCCCNCCCCCNC(=O)c2nn(-c3ccc(Cl)cc3Cl)c(-c3ccc(Cl)cc3)c2C)nn(-c2ccc(Cl)cc2Cl)c1-c1ccc(Cl)cc1 | 29.5
Cc1c(C(=O)NCCCCCNCCCCCN)nn(-c2ccc(Cl)cc2Cl)c1-c1ccc(Cl)cc1 | 759

Biological target: T1, Cannabinoid receptor 1
Test: biochemical
Type: cell-based, HEK293
Conditions: not given

SMILES | Ki [nM]
Cc1c(C(=O)NCCCCCCCCCNCCCCCCCCCN)nn(-c2ccc(Cl)cc2Cl)c1-c1ccc(Cl)cc1 | 5.44
Cc1c(C(=O)NCCCCCCCN(C)CCCCCCCN)nn(-c2ccc(Cl)cc2Cl)c1-c1ccc(Cl)cc1 | 15.5
Cc1c(C(=O)NCCCCCCCCCCCN(C)CCCCCCCCCCCNC(=O)c2nn(-c3ccc(Cl)cc3Cl)c(-c3ccc(Cl)cc3)c2C)nn(-c2ccc(Cl)cc2Cl)c1-c1ccc(Cl)cc1 | 1290
Cc1c(C(=O)NCCCCCCCN(C)CCCCCCCNC(=O)c2nn(-c3ccc(Cl)cc3Cl)c(-c3ccc(Cl)cc3)c2C)nn(-c2ccc(Cl)cc2Cl)c1-c1ccc(Cl)cc1 | 27.5
Cc1c(C(=O)NCCCNCCCN)nn(-c2ccc(Cl)cc2Cl)c1-c1ccc(Cl)cc1 | > 2500
Cc1c(C(=O)NCCCCCCCNCCCCCCCN)nn(-c2ccc(Cl)cc2Cl)c1-c1ccc(Cl)cc1 | 19.5
Cc1c(C(=O)NCCNCCN)nn(-c2ccc(Cl)cc2Cl)c1-c1ccc(Cl)cc1 | 506
Cc1c(C(=O)NCCCCCCCCCN(C)CCCCCCCCCNC(=O)c2nn(-c3ccc(Cl)cc3Cl)c(-c3ccc(Cl)cc3)c2C)nn(-c2ccc(Cl)cc2Cl)c1-c1ccc(Cl)cc1 | 94.1
Cc1c(C(=O)NCCCCCNCCCCCNC(=O)c2nn(-c3ccc(Cl)cc3Cl)c(-c3ccc(Cl)cc3)c2C)nn(-c2ccc(Cl)cc2Cl)c1-c1ccc(Cl)cc1 | 30.4
Cc1c(C(=O)NCCCCCNCCCCCN)nn(-c2ccc(Cl)cc2Cl)c1-c1ccc(Cl)cc1 | 230

Biological target: Cannabinoid receptor 2 (Homo sapiens, UniProt P34972)
Sequence (P34972 whole entry): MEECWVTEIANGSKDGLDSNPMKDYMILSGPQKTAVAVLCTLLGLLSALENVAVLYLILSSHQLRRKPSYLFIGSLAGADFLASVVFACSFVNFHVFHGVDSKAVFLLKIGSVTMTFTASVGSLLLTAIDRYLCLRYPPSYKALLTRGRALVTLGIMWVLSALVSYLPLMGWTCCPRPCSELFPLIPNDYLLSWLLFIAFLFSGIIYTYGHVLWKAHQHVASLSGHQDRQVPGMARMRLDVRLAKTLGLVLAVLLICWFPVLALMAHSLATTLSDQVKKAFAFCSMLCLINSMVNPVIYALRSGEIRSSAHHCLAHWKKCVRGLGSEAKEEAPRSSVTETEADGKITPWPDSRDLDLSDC
Test: Displacement of [3H]CP55940 from human CB2 receptor expressed in CHOK1 cells
Type: cell-based, CHO-K1
Conditions: not given

SMILES | Ki [nM]
Cc1c(C(=O)NCCCCCCCCCNCCCCCCCCCN)nn(-c2ccc(Cl)cc2Cl)c1-c1ccc(Cl)cc1 | 419
Cc1c(C(=O)NCCCCCCCN(C)CCCCCCCN)nn(-c2ccc(Cl)cc2Cl)c1-c1ccc(Cl)cc1 | 1930
Cc1c(C(=O)NCCCNCCCN)nn(-c2ccc(Cl)cc2Cl)c1-c1ccc(Cl)cc1 | > 2500
Cc1c(C(=O)NCCCCCCCNCCCCCCCN)nn(-c2ccc(Cl)cc2Cl)c1-c1ccc(Cl)cc1 | 622
Cc1c(C(=O)NCCNCCN)nn(-c2ccc(Cl)cc2Cl)c1-c1ccc(Cl)cc1 | > 2500
Cc1c(C(=O)NCCCCCNCCCCCNC(=O)c2nn(-c3ccc(Cl)cc3Cl)c(-c3ccc(Cl)cc3)c2C)nn(-c2ccc(Cl)cc2Cl)c1-c1ccc(Cl)cc1 | 451
Cc1c(C(=O)NCCCCCNCCCCCN)nn(-c2ccc(Cl)cc2Cl)c1-c1ccc(Cl)cc1 | > 2500

Biological target: T1, Cannabinoid receptor 1
Test: Displacement of [3H]CP55940 from human CB1 receptor expressed in HEK293 cells
Type: cell-based
Conditions: not given

SMILES | Ki [nM]
Cc1c(C(=O)NCCCCCCCCCNCCCCCCCCCN)nn(-c2ccc(Cl)cc2Cl)c1-c1ccc(Cl)cc1 | 14
Cc1c(C(=O)NCCCCCCCN(C)CCCCCCCN)nn(-c2ccc(Cl)cc2Cl)c1-c1ccc(Cl)cc1 | 37.5
Cc1c(C(=O)NCCCCCCCCCCCN(C)CCCCCCCCCCCNC(=O)c2nn(-c3ccc(Cl)cc3Cl)c(-c3ccc(Cl)cc3)c2C)nn(-c2ccc(Cl)cc2Cl)c1-c1ccc(Cl)cc1 | 1890
Cc1c(C(=O)NCCCCCCCN(C)CCCCCCCNC(=O)c2nn(-c3ccc(Cl)cc3Cl)c(-c3ccc(Cl)cc3)c2C)nn(-c2ccc(Cl)cc2Cl)c1-c1ccc(Cl)cc1 | 17.3
Cc1c(C(=O)NCCCNCCCN)nn(-c2ccc(Cl)cc2Cl)c1-c1ccc(Cl)cc1 | > 2500
Cc1c(C(=O)NCCCCCCCNCCCCCCCN)nn(-c2ccc(Cl)cc2Cl)c1-c1ccc(Cl)cc1 | 46.7
Cc1c(C(=O)NCCNCCN)nn(-c2ccc(Cl)cc2Cl)c1-c1ccc(Cl)cc1 | 1230
Cc1c(C(=O)NCCCCCCCCCN(C)CCCCCCCCCNC(=O)c2nn(-c3ccc(Cl)cc3Cl)c(-c3ccc(Cl)cc3)c2C)nn(-c2ccc(Cl)cc2Cl)c1-c1ccc(Cl)cc1 | 247
Cc1c(C(=O)NCCCCCNCCCCCNC(=O)c2nn(-c3ccc(Cl)cc3Cl)c(-c3ccc(Cl)cc3)c2C)nn(-c2ccc(Cl)cc2Cl)c1-c1ccc(Cl)cc1 | 68.1
Cc1c(C(=O)NCCCCCNCCCCCN)nn(-c2ccc(Cl)cc2Cl)c1-c1ccc(Cl)cc1 | 349
